In patent US9340590B2 (priority 2011, dated 2016):
pIC50: −log10 of the molar value. Like-named read-outs stand apart in the source and are kept apart here. Positions of bridges follow the written chain, without caps; N, C: chain ends. Non-standard residues stand in square brackets, D forms with d. Residues, ends and D or L forms follow the SMILES beside them. 1Nal = N[C@@H](Cc1cccc2ccccc12)C(=O)O

Molecular target: hNav1.7 (Homo sapiens, UniProt Q15858)
Experiment: cell-based
Assay type: cell-based
Conditions: read-out: IWQ Use Nav1.7

hNav1.7, sequence (Q15858 whole entry, looked up): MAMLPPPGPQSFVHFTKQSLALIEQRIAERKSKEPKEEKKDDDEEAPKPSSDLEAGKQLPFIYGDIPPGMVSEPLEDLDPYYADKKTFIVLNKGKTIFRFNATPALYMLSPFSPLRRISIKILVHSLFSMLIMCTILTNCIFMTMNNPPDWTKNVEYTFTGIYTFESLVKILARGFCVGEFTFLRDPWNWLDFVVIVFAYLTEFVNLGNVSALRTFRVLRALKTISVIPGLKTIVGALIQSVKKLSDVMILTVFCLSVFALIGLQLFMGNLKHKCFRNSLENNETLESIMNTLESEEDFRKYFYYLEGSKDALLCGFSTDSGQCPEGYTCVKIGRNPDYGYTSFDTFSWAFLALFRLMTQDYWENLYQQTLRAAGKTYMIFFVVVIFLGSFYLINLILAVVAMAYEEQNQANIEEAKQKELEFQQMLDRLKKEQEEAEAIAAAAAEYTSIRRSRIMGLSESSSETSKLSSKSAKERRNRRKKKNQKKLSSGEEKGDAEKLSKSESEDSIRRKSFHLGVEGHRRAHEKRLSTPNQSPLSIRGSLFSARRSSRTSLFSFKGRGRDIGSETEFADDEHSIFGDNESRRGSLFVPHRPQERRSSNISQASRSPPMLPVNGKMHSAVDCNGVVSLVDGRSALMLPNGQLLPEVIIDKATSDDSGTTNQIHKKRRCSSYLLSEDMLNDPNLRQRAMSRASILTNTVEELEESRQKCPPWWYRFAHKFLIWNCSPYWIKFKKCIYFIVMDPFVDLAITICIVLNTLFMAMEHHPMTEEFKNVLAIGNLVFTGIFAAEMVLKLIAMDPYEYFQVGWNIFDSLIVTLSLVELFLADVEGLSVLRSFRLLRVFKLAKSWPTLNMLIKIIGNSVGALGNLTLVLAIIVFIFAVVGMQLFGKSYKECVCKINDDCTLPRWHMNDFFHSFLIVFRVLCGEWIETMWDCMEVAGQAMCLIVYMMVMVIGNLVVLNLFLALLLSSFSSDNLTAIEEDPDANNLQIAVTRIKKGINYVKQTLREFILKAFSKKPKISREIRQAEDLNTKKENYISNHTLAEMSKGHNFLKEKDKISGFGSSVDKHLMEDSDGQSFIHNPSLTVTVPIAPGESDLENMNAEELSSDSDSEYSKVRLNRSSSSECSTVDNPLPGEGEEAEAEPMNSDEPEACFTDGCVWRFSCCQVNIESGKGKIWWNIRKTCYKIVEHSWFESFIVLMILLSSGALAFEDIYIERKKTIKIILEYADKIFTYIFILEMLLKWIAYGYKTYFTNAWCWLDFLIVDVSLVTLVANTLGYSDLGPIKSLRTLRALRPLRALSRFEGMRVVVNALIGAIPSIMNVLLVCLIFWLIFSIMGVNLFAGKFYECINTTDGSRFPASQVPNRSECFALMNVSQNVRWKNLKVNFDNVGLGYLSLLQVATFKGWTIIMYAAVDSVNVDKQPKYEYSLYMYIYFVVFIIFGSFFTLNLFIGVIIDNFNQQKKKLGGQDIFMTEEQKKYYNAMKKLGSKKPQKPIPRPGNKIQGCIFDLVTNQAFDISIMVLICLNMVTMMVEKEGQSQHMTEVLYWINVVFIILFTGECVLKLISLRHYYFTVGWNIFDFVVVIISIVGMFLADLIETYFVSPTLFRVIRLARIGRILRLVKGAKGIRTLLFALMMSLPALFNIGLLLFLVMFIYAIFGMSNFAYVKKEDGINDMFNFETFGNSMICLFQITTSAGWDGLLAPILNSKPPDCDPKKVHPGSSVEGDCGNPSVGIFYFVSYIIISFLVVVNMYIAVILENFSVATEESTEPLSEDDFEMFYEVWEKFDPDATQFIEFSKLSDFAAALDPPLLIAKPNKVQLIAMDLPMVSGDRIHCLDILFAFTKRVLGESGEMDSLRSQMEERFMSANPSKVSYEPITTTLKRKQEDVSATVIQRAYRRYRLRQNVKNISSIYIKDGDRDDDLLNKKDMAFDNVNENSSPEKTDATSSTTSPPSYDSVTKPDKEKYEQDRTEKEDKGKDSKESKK

SMILES	pIC50 (IonWorks Quattro, Use)	further results
CC[C@H](C)[C@@H]1NC(=O)[C@@H]2CSSC[C@@H]3NC(=O)[C@H](C(C)C)NC(=O)[C@H](CC(C)C)NC(=O)[C@H](CC(N)=O)NC(=O)[C@@H]4CCCN4C(=O)[C@H](CCCNC(=N)N)NC(=O)[C@H](CSSC[C@H](NC(=O)[C@@H](N)CC(=O)O)C(=O)N[C@@H](CC(C)C)C(=O)NCC(=O)N[C@@H](Cc4ccccc4)C(=O)N[C@@H](CCSC)C(=O)N[C@@H](CCCNC(=N)N)C(=O)N[C@@H](CCCCN)C(=O)N2)NC(=O)[C@H](CSSC[C@@H](C(=O)N[C@@H](CCCCN)C(=O)N[C@@H](Cc2ccc(O)cc2)C(=O)N[C@@H](CCCNC(=N)N)C(=O)N[C@@H](Cc2ccccc2)C(N)=O)NC(=O)[C@H](Cc2c[nH]c4ccccc24)NC(=O)[C@H](CCCCN)NC(=O)[C@H](Cc2c[nH]cn2)NC(=O)[C@H]([C@@H](C)O)NC(=O)[C@H](CCCNC(=N)N)NC(=O)[C@H](CO)NC3=O)NC(=O)[C@H](CCCCN)NC(=O)[C@H](CC(=O)O)NC(=O)[C@H](CC(N)=O)NC(=O)[C@H](CC(=O)O)NC(=O)[C@@H]2CCCN2C1=O [compound 74] (H-DCLGFMRKCIPDNDKCCRPNLVCSRTHKWCKYRF-NH2; disulfide 2-17, 9-23, 16-30)		pIC50 (Table 26, IonWorks Quattro, use, […]): 7.10
CC[C@H](C)[C@@H]1NC(=O)[C@@H]2CSSC[C@@H]3NC(=O)[C@H](CCC(=O)O)NC(=O)[C@H](CC(C)C)NC(=O)[C@H](CC(N)=O)NC(=O)[C@@H]4CCCN4C(=O)[C@H](CCCNC(=N)N)NC(=O)[C@H](CSSC[C@H](NC(=O)[C@@H](N)CC(=O)O)C(=O)N[C@@H](CC(C)C)C(=O)NCC(=O)N[C@@H](Cc4ccccc4)C(=O)N[C@@H](CCSC)C(=O)N[C@@H](CCCNC(=N)N)C(=O)N[C@@H](CCCCN)C(=O)N2)NC(=O)[C@H](CSSC[C@@H](C(=O)N[C@@H](CCCCN)C(=O)N[C@@H](Cc2ccc(O)cc2)C(=O)N[C@H](C(=O)N[C@@H](Cc2ccccc2)C(N)=O)C(C)C)NC(=O)[C@H](Cc2c[nH]c4ccccc24)NC(=O)[C@H](CCCCN)NC(=O)[C@H](Cc2c[nH]cn2)NC(=O)[C@H]([C@@H](C)O)NC(=O)[C@H](CCCNC(=N)N)NC(=O)[C@H](CO)NC3=O)NC(=O)[C@H](CCCCN)NC(=O)[C@H](CC(=O)O)NC(=O)[C@H](CC(N)=O)NC(=O)[C@H](CC(=O)O)NC(=O)[C@@H]2CCCN2C1=O [compound 102] (H-DCLGFMRKCIPDNDKCCRPNLECSRTHKWCKYVF-NH2; disulfide 2-17, 9-23, 16-30)	5.85	
CC[C@H](C)[C@@H]1NC(=O)[C@@H]2CSSC[C@@H]3NC(=O)[C@H](C(C)C)NC(=O)[C@H](CC(C)C)NC(=O)[C@H](CC(N)=O)NC(=O)[C@@H]4CCCN4C(=O)[C@H](CCCNC(=N)N)NC(=O)[C@H](CSSC[C@H](NC(=O)[C@@H](N)CC(=O)O)C(=O)N[C@@H](CC(C)C)C(=O)NCC(=O)N[C@@H](Cc4ccccc4)C(=O)N[C@@H](CCSC)C(=O)N[C@@H](CCCNC(=N)N)C(=O)N[C@@H](CCCCN)C(=O)N2)NC(=O)[C@H](CSSC[C@@H](C(=O)N[C@@H](CCCCN)C(=O)N[C@@H](Cc2ccc(O)cc2)C(=O)N[C@H](C(=O)N[C@@H](Cc2ccccc2)C(N)=O)C(C)C)NC(=O)[C@H](Cc2c[nH]c4ccccc24)NC(=O)[C@H](CCCCN)NC(=O)[C@H](Cc2c[nH]cn2)NC(=O)[C@H]([C@@H](C)O)NC(=O)[C@H](CCCNC(=N)N)NC(=O)[C@H](C)NC3=O)NC(=O)[C@H](CCCCN)NC(=O)[C@H](CC(=O)O)NC(=O)[C@H](CC(N)=O)NC(=O)[C@H](CC(=O)O)NC(=O)[C@@H]2CCCN2C1=O [compound 142] (H-DCLGFMRKCIPDNDKCCRPNLVCARTHKWCKYVF-NH2; disulfide 2-17, 9-23, 16-30)	6.33	
CC[C@H](C)[C@@H]1NC(=O)[C@@H]2CSSC[C@@H]3NC(=O)[C@H](C(C)C)NC(=O)[C@H](CC(C)C)NC(=O)[C@H](CC(N)=O)NC(=O)[C@@H]4CCCN4C(=O)[C@H](CCC(=O)O)NC(=O)[C@H](CSSC[C@H](NC(=O)[C@@H](N)CC(=O)O)C(=O)N[C@@H](CC(C)C)C(=O)NCC(=O)N[C@@H](Cc4ccccc4)C(=O)N[C@@H](CCSC)C(=O)N[C@@H](CCCNC(=N)N)C(=O)N[C@@H](CCCCN)C(=O)N2)NC(=O)[C@H](CSSC[C@@H](C(=O)N[C@@H](CCCCN)C(=O)N[C@@H](Cc2ccc(O)cc2)C(=O)N[C@H](C(=O)N[C@@H](Cc2ccccc2)C(N)=O)C(C)C)NC(=O)[C@H](Cc2c[nH]c4ccccc24)NC(=O)[C@H](CCCCN)NC(=O)[C@H](Cc2c[nH]cn2)NC(=O)[C@H]([C@@H](C)O)NC(=O)[C@H](CCCNC(=N)N)NC(=O)[C@H](CO)NC3=O)NC(=O)[C@H](CCCCN)NC(=O)[C@H](CC(=O)O)NC(=O)[C@H](CC(N)=O)NC(=O)[C@H](CC(=O)O)NC(=O)[C@@H]2CCCN2C1=O [compound 148] (H-DCLGFMRKCIPDNDKCCEPNLVCSRTHKWCKYVF-NH2; disulfide 2-17, 9-23, 16-30)		pIC50: 6.66
CC[C@H](C)[C@@H]1NC(=O)[C@@H]2CSSC[C@@H]3NC(=O)[C@H](C(C)C)NC(=O)[C@H](CC(C)C)NC(=O)[C@H](CC(N)=O)NC(=O)[C@H](CCCNC(=N)N)NC(=O)[C@H](CCCNC(=N)N)NC(=O)[C@H](CSSC[C@H](NC(=O)[C@@H](N)CC(=O)O)C(=O)N[C@@H](CC(C)C)C(=O)NCC(=O)N[C@@H](Cc4ccccc4)C(=O)N[C@@H](CCSC)C(=O)N[C@@H](CCCNC(=N)N)C(=O)N[C@@H](CCCCN)C(=O)N2)NC(=O)[C@H](CSSC[C@@H](C(=O)N[C@@H](CCCCN)C(=O)N[C@@H](Cc2ccc(O)cc2)C(=O)N[C@H](C(=O)N[C@@H](Cc2ccccc2)C(N)=O)C(C)C)NC(=O)[C@H](Cc2c[nH]c4ccccc24)NC(=O)[C@H](CCCCN)NC(=O)[C@H](Cc2c[nH]cn2)NC(=O)[C@H]([C@@H](C)O)NC(=O)[C@H](CCCNC(=N)N)NC(=O)[C@H](CO)NC3=O)NC(=O)[C@H](CCCCN)NC(=O)[C@H](CC(=O)O)NC(=O)[C@H](CC(N)=O)NC(=O)[C@H](CC(=O)O)NC(=O)[C@@H]2CCCN2C1=O [compound 157] (H-DCLGFMRKCIPDNDKCCRRNLVCSRTHKWCKYVF-NH2; disulfide 2-17, 9-23, 16-30)	7.15	
CC[C@H](C)[C@@H]1NC(=O)[C@@H]2CSSC[C@@H]3NC(=O)[C@H](CCCNC(=N)N)NC(=O)[C@H](CC(C)C)NC(=O)[C@H](CC(N)=O)NC(=O)[C@@H]4CCCN4C(=O)[C@H](CCCNC(=N)N)NC(=O)[C@H](CSSC[C@H](NC(=O)[C@@H](N)CC(=O)O)C(=O)N[C@@H](CC(C)C)C(=O)NCC(=O)N[C@@H](Cc4ccccc4)C(=O)N[C@@H](CCSC)C(=O)N[C@@H](CCCNC(=N)N)C(=O)N[C@@H](CCCCN)C(=O)N2)NC(=O)[C@H](CSSC[C@@H](C(=O)N[C@@H](CCCCN)C(=O)N[C@@H](Cc2ccc(O)cc2)C(=O)N[C@H](C(=O)N[C@@H](Cc2ccccc2)C(N)=O)C(C)C)NC(=O)[C@H](Cc2c[nH]c4ccccc24)NC(=O)[C@H](CCCCN)NC(=O)[C@H](Cc2c[nH]cn2)NC(=O)[C@H]([C@@H](C)O)NC(=O)[C@H](CCCNC(=N)N)NC(=O)[C@H](CO)NC3=O)NC(=O)[C@H](CCCCN)NC(=O)[C@H](CC(=O)O)NC(=O)[C@H](CC(N)=O)NC(=O)[C@H](CC(=O)O)NC(=O)[C@@H]2CCCN2C1=O [compound 158] (H-DCLGFMRKCIPDNDKCCRPNLRCSRTHKWCKYVF-NH2; disulfide 2-17, 9-23, 16-30)	7.22	
CC[C@H](C)[C@@H]1NC(=O)[C@@H]2CSSC[C@@H]3NC(=O)[C@H](C(C)C)NC(=O)[C@H](CC(C)C)NC(=O)[C@H](CC(N)=O)NC(=O)[C@@H]4CCCN4C(=O)[C@H](CCCNC(=N)N)NC(=O)[C@H](CSSC[C@H](NC(=O)[C@@H](N)CC(=O)O)C(=O)N[C@@H](CC(C)C)C(=O)NCC(=O)N[C@@H](Cc4ccccc4)C(=O)N[C@@H](CCSC)C(=O)N[C@@H](CCCNC(=N)N)C(=O)N[C@@H](CCCCN)C(=O)N2)NC(=O)[C@H](CSSC[C@@H](C(=O)N[C@@H](CCCCN)C(=O)N[C@@H](CCCNC(=N)N)C(=O)N[C@H](C(=O)N[C@@H](Cc2ccccc2)C(N)=O)C(C)C)NC(=O)[C@H](Cc2c[nH]c4ccccc24)NC(=O)[C@H](CCCCN)NC(=O)[C@H](Cc2c[nH]cn2)NC(=O)[C@H]([C@@H](C)O)NC(=O)[C@H](CCCNC(=N)N)NC(=O)[C@H](CO)NC3=O)NC(=O)[C@H](CCCCN)NC(=O)[C@H](CC(=O)O)NC(=O)[C@H](CC(N)=O)NC(=O)[C@H](CC(=O)O)NC(=O)[C@@H]2CCCN2C1=O [compound 159] (H-DCLGFMRKCIPDNDKCCRPNLVCSRTHKWCKRVF-NH2; disulfide 2-17, 9-23, 16-30)		pIC50: 5.99
CC[C@H](C)[C@@H]1NC(=O)[C@@H]2CSSC[C@@H]3NC(=O)[C@H](C(C)C)NC(=O)[C@H](CC(C)C)NC(=O)[C@H](CC(N)=O)NC(=O)[C@@H]4CCCN4C(=O)[C@H](CCCNC(=N)N)NC(=O)[C@H](CSSC[C@H](NC(=O)[C@@H](N)CC(=O)O)C(=O)N[C@@H](CC(C)C)C(=O)NCC(=O)N[C@@H](Cc4ccccc4)C(=O)N[C@@H](CCSC)C(=O)N[C@@H](CCCNC(=N)N)C(=O)N[C@@H](CCCCN)C(=O)N2)NC(=O)[C@H](CSSC[C@@H](C(=O)N[C@@H](CCCCN)C(=O)N[C@@H](Cc2cccc4ccccc24)C(=O)N[C@H](C(=O)N[C@@H](Cc2ccccc2)C(N)=O)C(C)C)NC(=O)[C@H](Cc2c[nH]c4ccccc24)NC(=O)[C@H](CCCCN)NC(=O)[C@H](Cc2c[nH]cn2)NC(=O)[C@H]([C@@H](C)O)NC(=O)[C@H](CCCNC(=N)N)NC(=O)[C@H](CO)NC3=O)NC(=O)[C@H](CCCCN)NC(=O)[C@H](CC(=O)O)NC(=O)[C@H](CC(N)=O)NC(=O)[C@H](CC(=O)O)NC(=O)[C@@H]2CCCN2C1=O [compound 167] (H-DCLGFMRKCIPDNDKCCRPNLVCSRTHKWCK[1Nal]VF-NH2; disulfide 2-17, 9-23, 16-30)		pIC50 (Table 25, IonWorks Quattro, use, […]): 8.40
